In PubChem BioAssay (NCI):
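How tested: cells in 96-well plates exposed to compound for 48 hours at five concentrations. GI50: concentration for 50% inhibition of growth. Definition used: TGI = concentration required for complete inhibition of growth.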

Assays:
Assay in all cases: NCI-60 cell line screen, 48 h
NCI-H23 lung = test system: NCI-H23 lung
IGROV1 ovarian = test system: IGROV1 ovarian
COLO 205 colon = test system: COLO 205 colon
SK-MEL-5 melanoma = test system: SK-MEL-5 melanoma
MOLT-4 leukemia = test system: MOLT-4 leukemia
OVCAR-5 ovarian = test system: OVCAR-5 ovarian
MDA-MB-435 = test system: MDA-MB-435
SR leukemia = test system: SR leukemia
M14 melanoma = test system: M14 melanoma
NCI/ADR-RES ovarian = test system: NCI/ADR-RES ovarian
UACC-257 melanoma = test system: UACC-257 melanoma
MCF7 breast = test system: MCF7 breast
TK-10 renal = test system: TK-10 renal
HCT-15 colon = test system: HCT-15 colon
HCT-116 colon = test system: HCT-116 colon
PC-3 prostate = test system: PC-3 prostate
DU-145 prostate = test system: DU-145 prostate
NCI-H522 lung = test system: NCI-H522 lung
RPMI-8226 leukemia = test system: RPMI-8226 leukemia
NCI-H226 lung = test system: NCI-H226 lung
HL-60(TB) leukemia = test system: HL-60(TB) leukemia
NCI-H460 lung = test system: NCI-H460 lung
RXF 393 renal = test system: RXF 393 renal
HS 578T breast = test system: HS 578T breast
SF-268 CNS = test system: SF-268 CNS
EKVX NSCLC = test system: EKVX NSCLC
CCRF-CEM leukemia = test system: CCRF-CEM leukemia
HT29 colon = test system: HT29 colon
SF-539 CNS = test system: SF-539 CNS
K-562 leukemia = test system: K-562 leukemia
A549 NSCLC = test system: A549 NSCLC
786-0 renal = test system: 786-0 renal
SF-295 CNS = test system: SF-295 CNS
UACC-62 melanoma = test system: UACC-62 melanoma
SNB-19 CNS = test system: SNB-19 CNS
SNB-75 CNS = test system: SNB-75 CNS
HCC-2998 colon = test system: HCC-2998 colon
SK-OV-3 ovarian = test system: SK-OV-3 ovarian
SW-620 colon = test system: SW-620 colon
SN12C renal = test system: SN12C renal
SK-MEL-2 melanoma = test system: SK-MEL-2 melanoma
ACHN renal = test system: ACHN renal
MDA-MB-231 breast = test system: MDA-MB-231 breast
T-47D breast = test system: T-47D breast
UO-31 renal = test system: UO-31 renal
U251 CNS = test system: U251 CNS
KM12 colon = test system: KM12 colon
A498 renal = test system: A498 renal
BT-549 breast = test system: BT-549 breast
OVCAR-8 ovarian = test system: OVCAR-8 ovarian
HOP-62 NSCLC = test system: HOP-62 NSCLC
CAKI-1 renal = test system: CAKI-1 renal

For `N#Cc1c(NC(=O)c2ccccc2C(F)(F)F)sc2c1CCC(=O)C2`, which GI50 (NCI-H23 lung) is on record?
Its GI50 is 1.04 µM.

And the TGI (NCI-H23 lung)?
The TGI was 9.28 µM.

What about the GI50 (IGROV1 ovarian) of the same compound?
Its GI50 is 2.37 µM.

And the TGI (IGROV1 ovarian)?
The TGI was 13.1 µM.

What about the GI50 (COLO 205 colon) of the same compound?
The GI50 was 1.87 µM.

And the TGI (COLO 205 colon)?
The TGI was 3.74 µM.

And the GI50 (SK-MEL-5 melanoma)?
Its GI50 is 1.65 µM.

And the TGI (SK-MEL-5 melanoma)?
The TGI was 3.47 µM.

What about the GI50 (MOLT-4 leukemia) of the same compound?
Its GI50 is 1.61 µM.

What about the TGI (MOLT-4 leukemia) of the same compound?
Its TGI is 16.7 µM.

What about the GI50 (OVCAR-5 ovarian) of the same compound?
Its GI50 is 1.48 µM.

What about the TGI (OVCAR-5 ovarian) of the same compound?
Its TGI is 3.81 µM.

What about the GI50 (MDA-MB-435) of the same compound?
Its GI50 is 1.97 µM.

What about the TGI (MDA-MB-435) of the same compound?
Its TGI is 5.86 µM.

And the GI50 (SR leukemia)?
The GI50 was 0.359 µM.

What about the TGI (SR leukemia) of the same compound?
The TGI was 5.82 µM.

And the GI50 (M14 melanoma)?
Its GI50 is 2.09 µM.

What about the TGI (M14 melanoma) of the same compound?
Its TGI is 9.33 µM.

What about the GI50 (NCI/ADR-RES ovarian) of the same compound?
The GI50 was 1.31 µM.

And the TGI (NCI/ADR-RES ovarian)?
Its TGI is 5.18 µM.

And the GI50 (UACC-257 melanoma)?
Its GI50 is 2.21 µM.

And the TGI (UACC-257 melanoma)?
The TGI was 6.48 µM.

What about the GI50 (MCF7 breast) of the same compound?
Its GI50 is 1.39 µM.

What about the TGI (MCF7 breast) of the same compound?
Its TGI is 10.3 µM.

What about the GI50 (TK-10 renal) of the same compound?
The GI50 was 1.64 µM.

And the TGI (TK-10 renal)?
The TGI was 9.83 µM.

And the GI50 (HCT-15 colon)?
The GI50 was 0.405 µM.

What about the TGI (HCT-15 colon) of the same compound?
The TGI was 1.85 µM.

What about the GI50 (HCT-116 colon) of the same compound?
Its GI50 is 0.363 µM.

What about the TGI (HCT-116 colon) of the same compound?
The TGI was 4.89 µM.

And the GI50 (PC-3 prostate)?
The GI50 was 0.384 µM.

What about the TGI (PC-3 prostate) of the same compound?
Its TGI is 15.6 µM.

And the GI50 (DU-145 prostate)?
The GI50 was 4.67 µM.

And the TGI (DU-145 prostate)?
The TGI was > 100 µM.

What about the GI50 (NCI-H522 lung) of the same compound?
Its GI50 is 0.36 µM.

What about the TGI (NCI-H522 lung) of the same compound?
Its TGI is 2.58 µM.

What about the GI50 (RPMI-8226 leukemia) of the same compound?
Its GI50 is 0.272 µM.

And the TGI (RPMI-8226 leukemia)?
The TGI was 0.954 µM.

And the GI50 (NCI-H226 lung)?
The GI50 was 2.09 µM.

And the TGI (NCI-H226 lung)?
The TGI was 5.94 µM.

What about the GI50 (HL-60(TB) leukemia) of the same compound?
Its GI50 is 0.405 µM.

What about the TGI (HL-60(TB) leukemia) of the same compound?
Its TGI is 4.02 µM.

What about the GI50 (NCI-H460 lung) of the same compound?
Its GI50 is 3.35 µM.

And the TGI (NCI-H460 lung)?
Its TGI is 19 µM.

And the GI50 (RXF 393 renal)?
The GI50 was 1.05 µM.

And the TGI (RXF 393 renal)?
The TGI was 2.8 µM.

What about the GI50 (HS 578T breast) of the same compound?
The GI50 was 1.95 µM.

What about the TGI (HS 578T breast) of the same compound?
The TGI was 8.36 µM.

And the GI50 (SF-268 CNS)?
The GI50 was 3.31 µM.

What about the TGI (SF-268 CNS) of the same compound?
The TGI was 34 µM.

What about the GI50 (EKVX NSCLC) of the same compound?
The GI50 was 2.68 µM.

What about the TGI (EKVX NSCLC) of the same compound?
The TGI was 11.4 µM.

What about the GI50 (CCRF-CEM leukemia) of the same compound?
The GI50 was 0.325 µM.

And the TGI (CCRF-CEM leukemia)?
The TGI was 14.9 µM.

And the GI50 (HT29 colon)?
The GI50 was 0.771 µM.

What about the TGI (HT29 colon) of the same compound?
Its TGI is 9.17 µM.

And the GI50 (SF-539 CNS)?
The GI50 was 0.48 µM.

What about the TGI (SF-539 CNS) of the same compound?
Its TGI is 1.91 µM.

What about the GI50 (K-562 leukemia) of the same compound?
The GI50 was 0.378 µM.

What about the TGI (K-562 leukemia) of the same compound?
Its TGI is 11.3 µM.

And the GI50 (A549 NSCLC)?
Its GI50 is 3.67 µM.

And the TGI (A549 NSCLC)?
Its TGI is 29.2 µM.

And the GI50 (786-0 renal)?
Its GI50 is 3.25 µM.

And the TGI (786-0 renal)?
Its TGI is > 100 µM.

What about the GI50 (SF-295 CNS) of the same compound?
The GI50 was 2.58 µM.

And the TGI (SF-295 CNS)?
The TGI was 7.05 µM.

What about the GI50 (UACC-62 melanoma) of the same compound?
Its GI50 is 1.18 µM.

What about the TGI (UACC-62 melanoma) of the same compound?
The TGI was 2.96 µM.

What about the GI50 (SNB-19 CNS) of the same compound?
The GI50 was 3.37 µM.

What about the TGI (SNB-19 CNS) of the same compound?
The TGI was > 100 µM.

What about the GI50 (SNB-75 CNS) of the same compound?
Its GI50 is 1.63 µM.

What about the TGI (SNB-75 CNS) of the same compound?
Its TGI is 6.1 µM.

What about the GI50 (HCC-2998 colon) of the same compound?
Its GI50 is 2.91 µM.

And the TGI (HCC-2998 colon)?
The TGI was 11.5 µM.

And the GI50 (SK-OV-3 ovarian)?
The GI50 was 4.87 µM.

And the TGI (SK-OV-3 ovarian)?
Its TGI is 50.4 µM.

What about the GI50 (SW-620 colon) of the same compound?
Its GI50 is 0.427 µM.

What about the TGI (SW-620 colon) of the same compound?
Its TGI is 2.52 µM.

And the GI50 (SN12C renal)?
The GI50 was 2.5 µM.

What about the TGI (SN12C renal) of the same compound?
Its TGI is 15.9 µM.

What about the GI50 (SK-MEL-2 melanoma) of the same compound?
The GI50 was 2.65 µM.

What about the TGI (SK-MEL-2 melanoma) of the same compound?
Its TGI is 7.02 µM.

And the GI50 (ACHN renal)?
Its GI50 is 0.433 µM.

What about the TGI (ACHN renal) of the same compound?
The TGI was 1.48 µM.

What about the GI50 (MDA-MB-231 breast) of the same compound?
Its GI50 is 2.08 µM.

And the TGI (MDA-MB-231 breast)?
Its TGI is 5.43 µM.

What about the GI50 (T-47D breast) of the same compound?
The GI50 was 0.374 µM.

What about the TGI (T-47D breast) of the same compound?
Its TGI is 3.24 µM.

And the GI50 (UO-31 renal)?
Its GI50 is 0.49 µM.

And the TGI (UO-31 renal)?
Its TGI is 1.82 µM.

And the GI50 (U251 CNS)?
The GI50 was 1.24 µM.

What about the TGI (U251 CNS) of the same compound?
The TGI was > 100 µM.

And the GI50 (KM12 colon)?
Its GI50 is 3.44 µM.

What about the TGI (KM12 colon) of the same compound?
The TGI was 13.9 µM.

What about the GI50 (A498 renal) of the same compound?
The GI50 was 10.5 µM.

What about the TGI (A498 renal) of the same compound?
The TGI was 25 µM.

And the GI50 (BT-549 breast)?
The GI50 was 1.09 µM.

What about the TGI (BT-549 breast) of the same compound?
The TGI was 8.62 µM.

And the GI50 (OVCAR-8 ovarian)?
The GI50 was 1.68 µM.

What about the TGI (OVCAR-8 ovarian) of the same compound?
The TGI was > 100 µM.

What about the GI50 (HOP-62 NSCLC) of the same compound?
Its GI50 is 3.12 µM.

And the TGI (HOP-62 NSCLC)?
Its TGI is > 100 µM.

And the GI50 (CAKI-1 renal)?
Its GI50 is 0.785 µM.

What about the TGI (CAKI-1 renal) of the same compound?
The TGI was 2.56 µM.
